# BindingDB's records for doi:10.1016/j.ejmech.2017.02.022 (Svkm'S Dr. Bhanuben Nanavati College of Pharmacy, 2017)
# Assay: Inhibition of ABCB1 in human MCF7/ADR cells assessed as potentiation of vinblastine-induced cytotoxicity by measuring vinblastine IC50 at IC10 after 7 days by SRB assay
row,Structure (SMILES),IC50
1,Cc1cc(C)c2c(c1)c(=O)c1ccccc1n2CCCCN1CCN(C)CC1,0.01 µM
2,CCN(CC)CCCCn1c2ccccc2c(=O)c2cc(C)cc(C)c21,0.0041 µM
3,Cc1cc(C)c2c(c1)c(=O)c1ccccc1n2CCCN(CCO)CCO,0.011 µM
4,Cc1cc(C)c2c(c1)c(=O)c1ccccc1n2CCCN1CCCCC1,0.017 µM
5,Cc1cc(C)c2c(c1)c(=O)c1ccccc1n2CCCCN(CCO)CCO,0.0031 µM
6,Cc1cc(C)c2c(c1)c(=O)c1ccccc1n2CCCN1CCN(C)CC1,0.017 µM
7,Cc1cc(C)c2c(c1)c(=O)c1ccccc1n2CCCCN1CCN(CCO)CC1,0.0013 µM
8,Cc1cc(C)c2c(c1)c(=O)c1ccccc1n2CCCN1CCOCC1,0.02 µM
9,Cc1cc(C)c2[nH]c3ccccc3c(=O)c2c1,0.027 µM
10,Cc1cc(C)c2c(c1)c(=O)c1ccccc1n2CCCCN1CCCCC1,0.005 µM
11,CCN(CC)CCCn1c2ccccc2c(=O)c2cc(C)cc(C)c21,0.014 µM
12,Cc1cc(C)c2c(c1)c(=O)c1ccccc1n2CCCCN1CCOCC1,0.004 µM
13,Cc1cc(C)c2c(c1)c(=O)c1ccccc1n2CCCN1CCN(CCO)CC1,0.008 µM
